In data set [1] the test system is patients with locally advanced or metastatic SCLC, ovarian cancer or cervical cancer. As to the kind of experiment: Phase Ib Part 1: DLT evaluation and RP2D determination. To be noted: IV over 30 min days 1, 8, 15, 22 every 28 days; topotecan 4 mg/m^2 days 1, 8, 15. Type of data set: in vivo, human.
Data set [2] concerns patients with locally advanced or metastatic SCLC, ovarian and cervical cancers. The note with it: in vivo.
For data set [3] the following is noted: in vivo.
Data set [4] relates to patients with advanced solid tumors. To be noted: cited from earlier work.
In data set [5] the test system is leukemia and lung cancer cell lines. The note with it: cited from earlier work.
Data set [6] deals with leukemia xenograft models. The note with it: cited from earlier work.
Data set [7] is described as follows: ME-344 plasma pharmacokinetics, Part 1 cycle 1, noncompartmental. The note with it: ME-344 10 mg/kg IV over 30 min with topotecan, 13 patients, arithmetic mean.
Data set [8] relates to patients. To be noted: topotecan monotherapy; cited from earlier work.

These results are taken from PMC7466821 (Investigational new drugs, 2017).

Each structure is given as a SMILES string. “And” between values parts separate entries of the source, which are not always exact repeats. Equal entries are not always repeated.

Regarding `Cc1c(O)ccc2c1OC[C@@H](c1ccc(O)cc1)[C@H]2c1ccc(O)cc1` [ME-344], the “recommended phase II dose (RP2D) of ME-344 in combination with topotecan” value in data set [1] is recorded as 10 mg/kg. Moreover, the “patients with SAE related to ME-344 (grade 3 diarrhea)” value in data set [2] was 1 patient. In addition, the neurotoxicity entry in data set [2] (iv, 10 mg/kg) is recorded as “neurotoxicity was not observed”. For the same compound, in data set [3], the “end-of-infusion concentration on Day 15 lower than on Day 1” value is listed as “approximately 27%”. In data set [4] (IV weekly), the “doses at which DLT (grade 3 or higher peripheral neuropathy) was observed” value was 15 to 20 mg/kg and > 10 mg/kg; the “recommended phase II dose (RP2D), single agent” value is on record as 10 mg/kg. In data set [4], the “duration of prolonged stable disease” value was 31–52 weeks and the “patients with prolonged stable disease” value was 5 patients. Besides, in data set [4] (single patient with SCLC), the “duration of partial response” value was 52 weeks. Besides, in data set [5], the cytotoxicity in vitro entry is listed as “cytotoxic”. Besides, the anti-tumor activity result in data set [6] is “demonstrates anti-tumor activity”. Further, the “t1/2 (terminal half-life)” value in data set [7] is 5.3 h and 5.301 h.
With `CC[C@@]1(O)C(=O)OCc2c1cc1n(c2=O)Cc2cc3c(CN(C)C)c(O)ccc3nc2-1` [topotecan, reference compound], in data set [2] (human), the “SAEs related to topotecan in the additional patients” value is recorded as 6 SAEs and the “additional patients with SAEs related to topotecan” value is 5 patients. The “grade 3/4 hematologic toxicity rate” value in data set [8] is reported as 16.7%.
